Results taken from patent publication US20190247376A1, “NICOTINIC ACETYLCHOLINE RECEPTOR AGONIST ATTENUATES ILC2-DEPENDENT AIRWAY HYPERREACTIVITY” (University of Southern California, priority 2016, published 2019).

Legend:
lung ILC2s = assay: In vitro stimulation of murine lung ILC2s, IL-5 and IL-13 by ELISA, viability by 7-AAD; type: cell-based, mouse
Experimental: FIGS. 2A-2C: α7nAChR agonist suppresses IL-5 and IL-13 production from ILC2s in vitro. BALB/cByJ mice were intranasally challenged with recombinant mouse IL-33 on days 1-3. On day 4 lung ILC2s were isolated and re-stimulated with rIL-33, rIL-2 and rIL-7 with or without α7nAChR agonist (2.5, 10 and 50 μg mL^−1) for 24 hours (FIG. 2A) or 48 hours (FIG. 2B). The levels of IL-5 and IL-13 were measured by ELISA. The viability of cultured ILC2s were assessed by staining with 7-AAD. (FIG. 2C) BALB/cByJ mice were intranasally challenged with recombinant mouse IL-33 on days 1-3, with or without α7nAChR agonist administration. On day 4 lung ILC2s were isolated and the number of IL-5^+ and IL-13^+ cells per 40×10^4 ILC2s were quantified. Values are expressed as the mean±SEM of five experiments (n=5; Student's t test *, p<0.05; **p<0.01).
FIG. 10: α7nAChR agonist suppresses cytokine production in ILC2s. Lung ILC2s were sorted from naïve BALB/cByJ mice and cultured with rm-IL-25 (10 ng mL−1) in the presence or absence of α7nAChR (10 μg mL−1) agonist for 24 hours. The levels of IL-5 and IL-13 were measured by ELISA. Data are representative of at least two independent experiments and are presented as means±SEM (n=4; Student's t test *, p<0.05).
Nicotine is known as a major constituent of cigarette smoke, which causes impairment of lung function and exacerbation of asthma. […] To address this question quantitatively, pulmonary ILC2s were isolated and cultured with increasing doses (2.5, 10 and 50 μg mL^−1) of α7nAChR agonist in the presence of rm-IL-33, rm-IL-2 and rm-IL-7. […] To verify that the actions of the agonist were not due to a reduction in the number of ILC2s, Applicants administered IL-33 to mice in vivo with or without agonist treatment, and then quantified the number of IL-5^+ and IL-13^+ ILC2s within a determined number of ILC2s (FIG. 2C). […]
Murine ILC2s were isolated from BALB/cByJ mice to >95% purity using the FACSARIA III cell sorter. […] Levels of cytokines were measured by ELISA (eBioscience), according to the manufacturer's instructions.

Rag2−/− mice = assay: Alternaria alternata-induced AHR in Rag2-deficient mice; type: in vivo, mouse; details: four consecutive days
Source text: FIGS. 6A-6C: α7nAChR agonist inhibits Alternaria-induced AHR. (FIG. 6A) Rag2-deficient mice intranasally received an extract of Alternaria alternata with or without α7nAChR agonist on days 1-4 according to scheme FIG. 6A. Measurement of lung function and BALF analysis followed on day 5. (FIG. 6B) Lung resistance. (FIG. 6C) Total number of eosinophils in BALF. Total number of lung ILC2s. Data are representative of at least four independent experiments and are presented as means±SEM (n=4; Student's t test *, p<0.05; ***, p<0.001).
It has been previously reported that Alternaria alternata can induce AHR^40. Applicants further explored the anti-inflammatory effects of α7nAChR agonist in ILC2-mediated AHR with this clinically relevant allergen. Rag2^−/− mice were i.n. administered Alternaria alternata extract with or without α7nAChR agonist for four consecutive days (FIG. 6A). […] Accordingly, the number of eosinophils in BALF and lung ILC2s were increased in Alternaria-treated mice. Meanwhile, α7nAChR agonist treatment abolished eosinophils and ILC2s in the lung (FIG. 6C).
Mice were intranasally (i.n.) administered carrier-free recombinant mouse IL-33 (BioLegend, San Diego Calif., 0.5 µg per mouse in 50 µL) with or without […] of α7nAChR agonist (kindly provided by Lin Chen) on three consecutive days. Mice were intranasally (i.n.) administered carrier-free recombinant mouse IL-25 (BioLegend, San Diego Calif., 5 µg per mouse in 50 µL) with or without […] of α7nAChR agonist on three consecutive days. For Alternaria alternata experiments, mice were i.n. administered Alternaria alternata (Greer Labs, Lenoir, N.C., 100 μg per mouse in 50 μL) with or without 125 µg α7nAChR agonist for four consecutive days. One day after the last challenge, mice were anesthetized using i.p. injection of ketamine (10 mg mL^−1) and xylazine (1 mg mL^−1). […] Maximum lung resistance (RL) and minimum compliance (Cdyn) values were recorded during a three-minute period after each methacholine challenge.

α4β2 subtype of nAChR = α4β2 subtype of nAChR (Homo sapiens, UniProt P17787+P43681); details: cited from earlier work
[1] = i.n. Alternaria alternata extract, agonist

Chain of α4β2 subtype of nAChR (P43681 29-627 limits assumed): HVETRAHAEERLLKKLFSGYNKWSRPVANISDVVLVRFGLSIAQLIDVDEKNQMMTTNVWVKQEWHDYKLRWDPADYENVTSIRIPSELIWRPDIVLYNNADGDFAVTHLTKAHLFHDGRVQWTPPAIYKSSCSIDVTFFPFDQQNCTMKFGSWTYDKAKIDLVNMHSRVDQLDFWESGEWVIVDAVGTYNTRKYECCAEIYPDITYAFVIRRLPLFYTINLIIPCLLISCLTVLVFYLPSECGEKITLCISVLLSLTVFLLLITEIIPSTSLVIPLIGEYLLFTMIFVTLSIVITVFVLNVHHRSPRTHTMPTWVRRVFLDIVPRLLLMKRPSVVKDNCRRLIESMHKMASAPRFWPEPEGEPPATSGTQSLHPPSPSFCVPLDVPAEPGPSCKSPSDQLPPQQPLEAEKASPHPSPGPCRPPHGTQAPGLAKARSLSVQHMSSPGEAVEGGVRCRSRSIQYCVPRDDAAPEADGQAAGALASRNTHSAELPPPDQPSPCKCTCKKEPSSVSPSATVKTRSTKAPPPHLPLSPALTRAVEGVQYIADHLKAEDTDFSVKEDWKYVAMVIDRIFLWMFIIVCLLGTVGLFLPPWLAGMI
Chain of α4β2 subtype of nAChR (P17787 26-502): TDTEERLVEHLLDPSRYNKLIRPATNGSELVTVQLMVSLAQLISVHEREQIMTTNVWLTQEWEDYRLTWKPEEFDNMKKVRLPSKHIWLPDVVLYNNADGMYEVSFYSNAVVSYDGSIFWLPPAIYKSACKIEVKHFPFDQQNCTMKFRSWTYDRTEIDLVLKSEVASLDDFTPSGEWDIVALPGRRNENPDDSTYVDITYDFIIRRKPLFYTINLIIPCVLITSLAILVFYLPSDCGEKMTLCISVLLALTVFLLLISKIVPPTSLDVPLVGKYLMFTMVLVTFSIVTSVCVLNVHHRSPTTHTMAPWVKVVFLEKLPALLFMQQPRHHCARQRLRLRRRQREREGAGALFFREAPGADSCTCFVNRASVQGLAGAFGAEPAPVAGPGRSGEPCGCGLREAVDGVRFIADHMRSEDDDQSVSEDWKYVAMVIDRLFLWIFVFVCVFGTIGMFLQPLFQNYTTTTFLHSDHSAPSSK

In the case of `COc1ccc(/C=C2\CCCN=C2c2cccnc2)c(OC)c1` [GTS-21, 3-[(3E)-3-[(2,4-dimethoxyphenyl)methylidene]-5,6-dihydro-4H-pyridin-2-yl]pyridine], the “viability of cultured ILC2s (7-AAD)” value (lung ILC2s; agonist 2.5, 10 and 50 μg mL−1, 24 or 48 hours) is reported as “independent of cell viability except at the highest tested dose”, the “IL-25-induced cytokine secretion (IL-5 and IL-13)” value (lung ILC2s; rm-IL-25 10 ng mL−1, agonist 10 μg mL−1, 24 hours) is reported as “susceptible to suppression” and the “IL-5 and IL-13 production from ILC2s (ELISA)” value (lung ILC2s; rm-IL-33, rm-IL-2, rm-IL-7, agonist 2.5, 10 and 50 μg mL−1, 24 or 48 hours) is reported as “dose-dependent anti-inflammatory effects”. The “AHR (lung resistance)” value (Rag2−/− mice; i.n. Alternaria alternata extract 100 μg, agonist 125 μg) was “did not develop AHR”, the “eosinophils in BALF” value (Rag2−/− mice; [1]) was “abolished” and the “lung ILC2s” value (Rag2−/− mice; [1]) was “abolished”. For the same compound, the “binding to the α4β2 subtype” value (α4β2 subtype of nAChR) was “binds”.
